From patent US11965039B2, “Compstatin analogues and their medical uses” (priority 2018, dated 2024)
Where two headings read alike, the source gives them in different places. Starred links: 1 amine or outer side, 2 acyl side, 3 side chain; linkers in the order of their positions; H or OH if unused. Positions of bridges follow the written chain, without caps; N, C: chain ends. Non-standard residues stand in square brackets, D forms with d. Residues, ends and D or L forms follow the SMILES beside them. Groups on a side chain read outwards from the residue. *: point of attachment. Trp(1-Me) = Cn1cc(C[C@H](N)C(=O)O)c2ccccc21; C18 diacid = O=C(O)CCCCCCCCCCCCCCCCC(=O)*; C16 diacid = O=C(O)CCCCCCCCCCCCCCC(=O)*; γGlu = O=C(O)[C@H](CCC(=O)[*:2])N[*:1]; AEEA = NCCOCCOCC(=O)O; Sar = CNCC(=O)O

System: classical complement pathway
Experiment: In vitro haemolysis assay (inhibition of classical complement pathway)
Assay type: cell-based, human
Conditions: human serum, sensitized sheep red blood cells
Procedure, shortened: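 Compound dilutions preincubated 15 min at room temperature with diluted human serum (titrated per batch for 70-90% maximal haemolysis), then antibody-sensitized sheep RBC (10^7/well) added for 30 min at 37 °C in Tris/casein buffer, pH 7.4. Stopped with EDTA; haemolysis read at 405 nm; IC50 by 4PL fit.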

[1] = Table 3, given as upper bounds, read-out: IC50, inhibition of hemolysis

Question: Which IC50 [1] does the source give for `CC[C@H](C)[C@@H]1NC(=O)[C@@H](NC(=O)[C@H](Cc2ccccc2)NC(=O)[C@H](CCC(=O)O)NC(=O)[C@H](CO)NC(C)=O)CSSC[C@@H](C(=O)N[C@H](C(=O)N[C@@H](CCC(=O)O)C(=O)N[C@@H](CCCCN)C(=O)N[C@@H](CCC(=O)NCC(=O)NCC(=O)NCC(=O)N[C@@H](CCCCNC(=O)CC[C@H](NC(=O)CNC(=O)CC[C@H](NC(=O)CCCCCCCCCCCCCCCCC(=O)O)C(=O)O)C(=O)O)C(N)=O)C(=O)O)[C@@H](C)O)NC(=O)[C@H](CCCNC(=N)N)NC(=O)[C@H](Cc2c[nH]cn2)NC(=O)[C@H](CCC(=O)O)NC(=O)CNC(=O)[C@H](Cc2c[nH]c3ccccc23)NC(=O)[C@H](CC(=O)O)NC(=O)[C@H](CCC(N)=O)NC(=O)[C@H](Cc2cn(C)c3ccccc23)NC1=O` [Compound 133] (Ac-SEFCI[Trp(1-Me)]QDWGEHRCTEK[γGlu]GGGK([γGlu-Gly-γGlu-C18 diacid])-NH2; disulfide 4-14) here?
Answer: < 100 nM

Question: Which IC50 [1] does the source give for `CC[C@H](C)[C@@H]1NC(=O)[C@@H](NC(=O)[C@H](Cc2ccccc2)NC(=O)[C@H](CCC(=O)O)NC(=O)[C@H](CO)NC(C)=O)CSSC[C@@H](C(=O)N(C)CC(=O)N[C@@H](CCC(=O)O)C(=O)NCC(=O)N[C@@H](C)C(=O)N[C@@H](CCCCNC(=O)COCCOCCNC(=O)CC[C@H](NC(=O)COCCOCCNC(=O)CNC(=O)CC[C@H](NC(=O)CCCCCCCCCCCCCCCCC(=O)O)C(=O)O)C(=O)O)C(N)=O)NC(=O)[C@H](CCCNC(=N)N)NC(=O)[C@H](Cc2c[nH]cn2)NC(=O)[C@H](CCC(=O)O)NC(=O)CNC(=O)[C@H](Cc2c[nH]c3ccccc23)NC(=O)[C@H](CCC(=O)O)NC(=O)[C@H](CCC(N)=O)NC(=O)[C@H](Cc2cn(C)c3ccccc23)NC1=O` [Compound 120] (Ac-SEFCI[Trp(1-Me)]QEWGEHRC[Sar]EGAK([AEEA-γGlu-AEEA-Gly-γGlu-C18 diacid])-NH2; disulfide 4-14) here?
Answer: < 250 nM

Question: `CC[C@H](C)[C@H](NC(=O)[C@H](C)NC(=O)[C@H](CO)NC(=O)CNC(=O)[C@H](CCC(=O)O)NC(C)=O)C(=O)N[C@H]1CSSC[C@@H](C(=O)N[C@H](C(N)=O)[C@@H](C)O)NC(=O)[C@H](CCCNC(=N)N)NC(=O)[C@H](Cc2c[nH]cn2)NC(=O)[C@H](CCC(=O)O)NC(=O)CNC(=O)[C@H](Cc2c[nH]c3ccccc23)NC(=O)[C@H](CC(=O)O)NC(=O)[C@H](CCC(N)=O)NC(=O)[C@H](Cc2c[nH]c3ccccc23)NC(=O)[C@H]([C@@H](C)CC)NC1=O` [Compound 29] (Ac-EGSAICIWQDWGEHRCT-NH2; disulfide 6-16) was tested. Which IC50 [1] did it give?
Answer: < 100 nM

Question: How did the IC50 [1] turn out when `CC[C@H](C)[C@@H]1NC(=O)[C@@H](NC(=O)[C@H](Cc2ccccc2)NC(=O)[C@H](CCC(=O)O)NC(=O)CNC(C)=O)CSSC[C@@H](C(=O)N(C)CC(=O)N[C@@H](CCC(=O)O)C(=O)N[C@@H](C)C(N)=O)NC(=O)[C@H](CCCNC(=N)N)NC(=O)[C@H](Cc2c[nH]cn2)NC(=O)[C@H](CCC(=O)O)NC(=O)CNC(=O)[C@H](Cc2c[nH]c3ccccc23)NC(=O)[C@H](CC(=O)O)NC(=O)[C@H](CCC(N)=O)NC(=O)[C@H](Cc2cn(C)c3ccccc23)NC1=O` [Compound 87] (Ac-GEFCI[Trp(1-Me)]QDWGEHRC[Sar]EA-NH2; disulfide 4-14) was run?
Answer: < 100 nM

Question: With `CC[C@H](C)[C@H](NC(=O)[C@H](C)NC(=O)[C@H](CO)NC(=O)CNC(=O)[C@H](CCC(=O)O)NC(C)=O)C(=O)N[C@H]1CSSC[C@@H](C(=O)N[C@H](C(=O)N[C@@H](CCC(=O)O)C(=O)NCC(=O)N[C@@H](CCCCNC(=O)CC[C@H](NC(=O)CCCCCCCCCCCCCCC(=O)O)C(=O)O)C(N)=O)[C@@H](C)O)NC(=O)[C@H](CCCNC(=N)N)NC(=O)[C@H](Cc2c[nH]cn2)NC(=O)[C@H](CCC(=O)O)NC(=O)CNC(=O)[C@H](Cc2c[nH]c3ccccc23)NC(=O)[C@H](CC(=O)O)NC(=O)[C@H](CCC(N)=O)NC(=O)[C@H](Cc2c[nH]c3ccccc23)NC(=O)[C@H]([C@@H](C)CC)NC1=O` [Compound 101] (Ac-EGSAICIWQDWGEHRCTEGK([γGlu-C16 diacid])-NH2; disulfide 6-16) as the compound, how does the IC50 [1] read?
Answer: < 500 nM

Question: For `CC[C@H](C)[C@@H]1NC(=O)[C@@H](NC(=O)[C@H](Cc2ccc(O)cc2)NC(=O)[C@H](CCC(=O)O)NC(=O)[C@H](CO)NC(C)=O)CSSC[C@@H](C(=O)N(C)CC(=O)N[C@@H](CCC(=O)O)C(=O)N[C@@H](CCCCN)C(=O)N[C@@H](CCC(=O)N[C@@H](C)C(=O)N[C@@H](CCCCNC(=O)COCCOCCNC(=O)CC[C@H](NC(=O)COCCOCCNC(=O)CNC(=O)CC[C@H](NC(=O)CCCCCCCCCCCCCCCCC(=O)O)C(=O)O)C(=O)O)C(N)=O)C(=O)O)NC(=O)[C@H](CCCNC(=N)N)NC(=O)[C@H](Cc2c[nH]cn2)NC(=O)[C@H](CCC(=O)O)NC(=O)CN(C)C(=O)[C@H](Cc2c[nH]c3ccccc23)NC(=O)[C@H](CCC(=O)O)NC(=O)[C@H](CCC(N)=O)NC(=O)[C@H](Cc2cn(C)c3ccccc23)NC1=O` [Compound 121, Ac-SEYC(1)I[1-Me-Trp]QEW[Sar]EHRC(1)[Sar]EK[γGlu]A-K([17-carboxy-heptadecanoyl][γGlu]G[Peg3][γGlu][Peg3])-NH2] (Ac-SEYCI[Trp(1-Me)]QEW[Sar]EHRC[Sar]EK[γGlu]AK([AEEA-γGlu-AEEA-Gly-γGlu-C18 diacid])-NH2; disulfide 4-14), which IC50 [1] is on record?
Answer: < 250 nM

Question: Which IC50 (Table 4, valine 3 vs isoleucine 3 pairs, read-out: CP hemolysis IC50) does the source give for `CC[C@H](C)[C@H](NC(=O)[C@H](C)NC(=O)[C@H](CO)NC(=O)[C@H](CO)NC(=O)[C@H](CCC(=O)O)NC(C)=O)C(=O)N[C@H]1CSSC[C@@H](C(=O)N[C@H](C(N)=O)[C@@H](C)O)NC(=O)[C@H](CCCNC(=N)N)NC(=O)[C@H](Cc2c[nH]cn2)NC(=O)[C@H](CCC(=O)O)NC(=O)CNC(=O)[C@H](Cc2c[nH]c3ccccc23)NC(=O)[C@H](CC(=O)O)NC(=O)[C@H](CCC(N)=O)NC(=O)[C@H](Cc2c[nH]c3ccccc23)NC(=O)[C@H](C(C)C)NC1=O` [C, reference compound] (Ac-ESSAICVWQDWGEHRCT-NH2; disulfide 6-16) here?
Answer: 300 nM

Question: For `CC[C@H](C)[C@H](NC(C)=O)C(=O)N[C@H]1CSSC[C@@H](C(=O)N[C@H](C(=O)N[C@@H](CCC(=O)O)C(=O)NCC(=O)N[C@@H](CCCCNC(=O)CC[C@H](NC(=O)CCCCCCCCCCCCCCC(=O)O)C(=O)O)C(N)=O)[C@@H](C)O)NC(=O)[C@H](CCCNC(=N)N)NC(=O)[C@H](Cc2c[nH]cn2)NC(=O)[C@H](CCC(=O)O)NC(=O)CNC(=O)[C@H](Cc2c[nH]c3ccccc23)NC(=O)[C@H](CC(=O)O)NC(=O)[C@H](CCC(N)=O)NC(=O)[C@H](Cc2c[nH]c3ccccc23)NC(=O)[C@H]([C@@H](C)CC)NC1=O` [Compound 92] (Ac-ICIWQDWGEHRCTEGK([γGlu-C16 diacid])-NH2; disulfide 2-12), which IC50 [1] is on record?
Answer: < 1000 nM

Question: How did the IC50 [1] turn out when `CC[C@H](C)[C@@H]1NC(=O)[C@@H](NC(=O)CN(C)C(=O)[C@H](CCC(=O)O)NC(=O)[C@H](CO)NC(C)=O)CSSC[C@@H](C(=O)N[C@H](C(=O)N[C@@H](CCC(=O)O)C(=O)N[C@@H](C)C(N)=O)[C@@H](C)O)NC(=O)[C@H](CCCNC(=N)N)NC(=O)[C@H](Cc2c[nH]cn2)NC(=O)[C@H](CCC(=O)O)NC(=O)CNC(=O)[C@H](Cc2c[nH]c3ccccc23)NC(=O)[C@H](CC(=O)O)NC(=O)[C@H](CCC(N)=O)NC(=O)[C@H](Cc2cn(C)c3ccccc23)NC1=O` [Compound 82] (Ac-SE[Sar]CI[Trp(1-Me)]QDWGEHRCTEA-NH2; disulfide 4-14) was run?
Answer: < 100 nM
